These results are taken from a melting point compilation (Tetko et al.; mined from patent text by program, amines drawn as free bases though some values may be those of a salt).

The structures appear in SMILES notation.

`CCc1c(-c2ccc(OC)cc2)c2ccc3cc(OC)cc1n32` had a melting point of 109 to 111 °C.
With `C=CCOCCCCOc1ccc2c(c1)Cc1cc(C(C)=O)ccc1-2` the figure was 77 °C; with `CC(=O)OCc1c2ccccc2cc2ccccc12`, 110 to 112 °C; with `CN(C)S(=O)(=O)c1ccc2c(c1)CC(N1CCN(CCN3CCOC3=O)CC1)c1ccccc1S2` (stereo not drawn), 164 to 165 °C.
In the case of `O=C1CCCC2=C1C(c1cccc([N+](=O)[O-])c1)C1=C(CCCC1)N2` (stereo not drawn), the melting point fell in the range of 218 to 221 °C.
`COc1ccc(F)cc1C(=O)NC1COc2cc(OC)c(S(=O)(=O)NC(=S)NC(C)C)cc2C1` (stereo not drawn) yielded a melting point of 179 to 180 °C.
As for `Cc1sc(N2CCCCC2)nc1C=Cc1cn(-c2ccccc2)nc1O`, the melting point was 224 to 226 °C.
Consider `CN1CCN(c2nc3sc4c(NCc5ccccn5)ncnc4c3c3c2CCC(C)(C)C3)CC1`, for which the melting point lay within 200 to 202 °C.
With `NC(=O)c1ccc(NC2CCOCC2)cc1` the figure was 208 to 210 °C; with `Cc1c(O)c(=O)ccn1CCCCCO`, 136 to 138 °C; with `COC(=O)c1cc(-c2cccc(Cl)c2)sc1N`, 85 to 87 °C.
Compound `Cc1cc(CCCCCCCOc2ccc(C(=O)NN)cc2)on1` registered a melting point of 121 to 122 °C.
With `COC(=O)Cc1ccc(OCCN2CCN(c3cc(Cl)nnc3Cl)CC2)cc1` the figure was 84 to 86 °C; with `CCC(CC)c1ccc(Cl)c2nc3n(c12)CCCCN3c1ncc(C(C)=O)cc1C`, 142 °C; with `CCC(=O)Nc1ccc(-c2ccncc2)cc1`, 179 to 181 °C.
For the compound `Cc1cc(Cl)c(OCCO[Si](C)(C)C(C)(C)C)cc1Nc1nnc2n1[C@H](c1ccc(F)cc1)COC2`, the melting point was in the range of 141 to 142 °C.
With `O=C(C=Cc1ccccc1Cl)Nc1cc(Cl)cc(Nc2noc3ccccc23)c1` the figure was 133 to 135 °C; with `CCOC(=O)Nc1cc([N+](=O)[O-])ccc1F`, 90 to 92 °C.
Take `CCOCCOc1ccc(CCNC(=O)/C=C/c2cccs2)cc1S(=O)(=O)NC(=S)NC`: the melting point is 51 °C.
Compound `COc1cc(N)c(Cl)cc1C(=O)CCC1CCNCC1` gave a melting point of 138 to 140 °C.
In turn, `COC(=O)COc1c(C(=O)OC)n(-c2ccccc2)c2ccc(OC)cc12` gave a melting point of 97 to 100 °C.
With `CCC(=O)Oc1cccc2c1C(=O)c1c(OC(=O)CC)cccc1C2C(=O)CC(C)C` the figure was 124 °C; with `OCc1cccnc1Oc1ccc(F)cc1`, 70 to 72 °C.
For `c1cnc2nc(-c3nccs3)ccc2c1`, the melting point was in the range of 160 to 165 °C.
With `O=C(CCc1ccc(O)cc1)OCc1ccc([N+](=O)[O-])cc1` the figure was 80 to 82 °C.
For the compound `CS(=O)c1ccccc1C1CCCC2(C1)C(=O)Nc1ccccc12` (stereo not drawn), the melting point lay within 190 to 191 °C.
With `O=C(O)c1ccc(-c2cnc3c(c2)N(Cc2c(Cl)cccc2Cl)C(=O)CN3)cc1` the figure was over 200 °C.
With `O=C(Nc1ccc(Oc2ccccc2)cc1)N1CCN(c2ccnc3cc(Cl)ccc23)CC1` the figure was 159 to 161 °C; with `CCCCCCCCCCCCCCOc1ccc(CC(=O)CO)cc1`, 84 to 85 °C.
In turn, `O=C(Cc1cccc2ccccc12)Nc1cc([C@H]2C[C@@H](NC(=O)c3ccc4ccccc4n3)C2)[nH]n1` showed a melting point of 200 °C.
With `O=C(OCc1ccccc1)N1CCSC1=S` the figure was 72 °C.
`CCCCCCc1ccc(C2CN=C(NC(=O)OC)N2C)cc1` (stereo not drawn) gave a melting point of 115 to 116 °C.
On to `CC1Oc2ccc(CN3CCC(c4ccc(C(F)(F)F)cc4)CC3)cc2NC1=O` (stereo not drawn), for which the melting point lay in the range of 217 to 218 °C.
With `O=C1c2ccc(OS(=O)(=O)C(F)(F)F)cc2CCC1Cc1ccccc1` (stereo not drawn) the figure was 52 to 53.7 °C; with `CCCN(CCC)c1nc2c(Cl)nccc2c(=O)[nH]1`, 180 °C; with `CCC(CC)C(NS(=O)(=O)c1ccc(Cl)cc1)c1ccnn1-c1ccccc1` (stereo not drawn), 135 to 136 °C.
Consider `O=c1oc(-c2ccc(Sc3ccccc3)cc2)cc(O)c1SCCc1ccccc1`, for which the melting point was 120 to 121 °C.
With `CCOC(=O)c1cnc2ccc(C(F)(F)F)cc2c1O` the figure was over 260 °C; with `COc1cn(-c2cccc(C(F)(F)F)c2)nc(C(=O)C=CN(C)C)c1=O`, 176 to 178 °C.
`O=C1CNc2ncc(I)cc2N1Cc1cc(F)c(F)cc1F`: the melting point lay within 227 to 228 °C.
`CC(C)n1cc(-c2nc(C#N)c(N)nc2-c2cccc(F)c2)ccc1=O` registered a melting point of 211 °C.
With `Ic1ccc(Cc2ccc(I)cc2)cc1` the figure was 160 to 164 °C.
`CN1CCN(Cc2ccc(-c3ccc(-c4cn([C@H]5CN6CCC5CC6)nn4)s3)cc2)CC1` yielded a melting point of 214 °C.
With `COc1cccc(-c2cn(C)cc(-c3cccc(C(F)(F)F)c3)c2=O)c1OC` the figure was 153 to 155 °C; with `CCC(=O)c1ccc(-c2ccc(=O)[nH]n2)cc1`, 202 to 205 °C.
With `CCN(CC)Cc1ccc2cc(COc3cccc4c3CN(C3CCC(=O)NC3=O)C4=O)sc2c1` (stereo not drawn) the figure was 190 to 192 °C.
With `CC(C)(C)NC(=O)[C@@H]1CC(Cl)CN1C(=O)C(O)[C@H](Cc1ccccc1)NC(=O)[C@H](CC(N)=O)NC(=O)COc1ccc(NC(=O)OCc2ccccc2)cc1` (stereo partly drawn) the figure was 113 to 115 °C; with `CCOC(=O)c1cc2c([nH]1)c(N(C)S(=O)(=O)c1cccs1)cn2Cc1ccccc1`, 120 °C.
Consider `CCOC(=O)c1ccccc1-n1nnnc1C`, for which the melting point lay within 98 to 100 °C.
Consider `CC(C)(C)c1cc(C(=O)c2ccc(O)cc2)cc(C(C)(C)C)c1O`, for which the melting point lay in the range of 188 to 190 °C.
With `CC1(C)CCC(C)(C)c2c1ccc(C=Nc1ccc(C(=O)O)c(O)c1)c2N` the figure was 209 to 210 °C; with `CN1CCC(NC2=Nc3ccccc3Cn3nnnc32)CC1`, 112 to 114 °C.
With `Cc1nnc(-c2ccc3occ(-c4cccc(OC(F)(F)F)c4)c3c2)o1` the figure was 110 to 111 °C.
Turning to `CCOC(=O)CC1CCc2c(sc3c(Cl)cccc23)C1` (stereo not drawn), the melting point fell in the range of 51 to 53 °C.
`O=C1CCCN1C(c1ccccc1Cl)N1CCN(c2ncccn2)CC1` (stereo not drawn): the melting point was 166 to 177 °C.
With `COC(=O)CCCSc1c2c(=O)n(C)c(=O)n(CC(C)C)c2nn1Cc1cccc2ccccc12` the figure was 100 °C; with `CC(=O)c1ccc(NS(=O)(=O)c2sc3ccc(F)cc3c2C)c(S(C)(=O)=O)c1`, 174 to 175 °C; with `COCCOCc1c(CN(C)CC(O)c2cccc(N)c2)sc2c(=O)c(C(=O)NCc3ccc(Cl)cc3)cn(C)c12` (stereo not drawn), 128 to 131 °C.
For `CCCC(=O)c1cc2c(OCC)cc(C(=O)OCC)nc2cc1C`, the melting point fell in the range of 123 to 124 °C.
With `CC(C)OC(=O)c1cc(-n2c(=O)c3c(n(C)c2=O)CCC3)ccc1Cl` the figure was 148 to 150 °C.
Consider `O=C(C=Cc1cnc2ccccc2c1)NCCCSc1ccncc1`, for which the melting point is 154 to 155 °C.
In the case of `CCc1nc2c(N)nc3cc(/C=C/C(=O)OC)ccc3c2n1CC(C)(C)O`, the melting point was in the range of 238 to 240 °C.
`CC(C)(c1ccc2c(=O)c3ccccc3sc2c1)[N+](=O)[O-]`: the melting point lay in the range of 131 to 133 °C.

Broadly, the melting point is the temperature of the solid-liquid transition.
